Activity calls are given as the source filed them. No cut-off for these calls is given here.
What was measured:
Rattus norvegicus [1] = organism: Rattus norvegicus; experiment: animal or person; format: functional; conditions: Charles Foster, po, 18 h
Description: Antihyperlipidemic activity in triton WR-1339 induced Charles Foster rat hyperlipidemia model assessed as inhibition of total cholesterol level in serum at 100 mg/kg, po administered simultaneously with triton WR-1339 after 18 hrs by enzymatic method relative to control

Rattus norvegicus [2] = organism: Rattus norvegicus; experiment: animal or person; format: functional; conditions: Charles Foster, po, 18 h; remark: listed apart in the source
Description: Antihyperlipidemic activity in triton WR-1339 induced Charles Foster rat hyperlipidemia model assessed as inhibition of phospholipid level in serum at 100 mg/kg, po administered simultaneously with triton WR-1339 after 18 hrs by enzymatic method relative to control

Rattus norvegicus [3] = experiment: Antihyperlipidemic activity in triton WR-1339 induced Charles Foster rat hyperlipidemia model assessed as increase in HDL-C level in serum at 50 mg/kg, po administered simultaneously with triton WR-1339 after 18 hrs by enzymatic method relative to control; format: functional
Rattus norvegicus [4] = experiment: Antihyperlipidemic activity in triton WR-1339 induced Charles Foster rat hyperlipidemia model assessed as inhibition of triglyceride level in serum at 50 mg/kg, po administered simultaneously with triton WR-1339 after 18 hrs by enzymatic method relative to control; format: functional
Rattus norvegicus [5] = experiment: Antihyperlipidemic activity in po dosed triton WR-1339 induced Charles Foster rat hyperlipidemia model assessed as increase in HDL-C level in serum administered simultaneously with triton WR-1339 after 18 hrs by enzymatic method relative to control; format: functional, organism-based
Rattus norvegicus [6] = experiment: Antihyperlipidemic activity in po dosed triton WR-1339 induced Charles Foster rat hyperlipidemia model assessed as inhibition of total cholesterol level in serum administered simultaneously with triton WR-1339 after 18 hrs by enzymatic method relative to control; format: functional, organism-based
Rattus norvegicus [7] = experiment: Hypolipidemic activity in HFD-induced Charles Foster rat assessed as increase in lipolytic activity of LPL in liver at 100 mg/kg administered as single dose via oral gavage for 30 days simultaneously with high fat diet; format: functional, organism-based

`COc1ccc(-c2cc3cc(C(c4c[nH]c5ccccc45)c4c[nH]c5ccccc45)cc(C(C)(C)C)c3oc2=O)cc1OC` showed an inhibition in vivo at 100 mg/kg (Rattus norvegicus [1]) of 32%, an inhibition in vivo at 100 mg/kg (Rattus norvegicus [2]) of 33% and an Activity (Rattus norvegicus [3]) of 15%. The inhibition in vivo at 50 mg/kg (Rattus norvegicus [4]) was 20%, the Activity (Rattus norvegicus [5]) was “Dose-dependent effect” and the inhibition (Rattus norvegicus [6]) was “Dose-dependent effect”. The Activity (Rattus norvegicus [7]) was “Active”.
